Assay results: patent US6479435B1, “Diaryl ethers and processes for their preparation and herbicidal and desiccant compositions containing them” (ISK Americas Incorporated, priority 1997, dated 2002)

Columns and labels:
Assay type in all cases: in vivo
[1] = tested on: ivyleaf morningglory (Ipomoea hederacea, IPOHE); test: Post-emerge greenhouse herbicide test, phytotoxicity rating; conditions: Ipomoea, post-emergence, 336 h, 14 days after application, scale 0-100; for pest or weed control at 63 g/ha: rate 63 g ai/ha; for pest or weed control at 500 g/ha: rate 500 g ai/ha
In short: (§1)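 Compounds in acetone with 0.25% v/v non-ionic surfactant were track-sprayed at 187 l/ha over plants at the 2-3 leaf stage, at 63 to 1000 g ai/ha. Pots were bottom-watered. Injury was scored visually 14 days later on a 0-100 scale, where 0 is no damage and 100 is complete plant death.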

[2] = tested on: green foxtail (Setaria viridis, SETVI); test: as above; conditions: Setaria viridis, post-emergence, 336 h, 14 days after application, scale 0-100; for pest or weed control at 63 g/ha: rate 63 g ai/ha; for pest or weed control at 500 g/ha: rate 500 g ai/ha
In short: as §1

[3] = tested on: barnyardgrass (Echinochloa crusgalli, ECHCG); test: as above; conditions: Echinochloa crus-galli, post-emergence, 336 h, 14 days after application, scale 0-100; for pest or weed control at 63 g/ha: rate 63 g ai/ha; for pest or weed control at 500 g/ha: rate 500 g ai/ha
In short: as §1

[4] = tested on: sicklepod (Cassia obtusifolia, CASOB); test: as above; conditions: Senna obtusifolia, post-emergence, 336 h, 14 days after application, scale 0-100; for pest or weed control at 63 g/ha: rate 63 g ai/ha; for pest or weed control at 500 g/ha: rate 500 g ai/ha
In short: as §1

[5] = tested on: velvetleaf (Abutilon theophrasti, ABUTH); test: as above; conditions: Abutilon theophrasti, post-emergence, 336 h, 14 days after application, scale 0-100; for pest or weed control at 63 g/ha: rate 63 g ai/ha; for pest or weed control at 500 g/ha: rate 500 g ai/ha
In short: as §1

[6] = tested on: redroot pigweed (Amaranthus retroflexus, AMARE); test: as above; conditions: Amaranthus retroflexus, post-emergence, 336 h, 14 days after application, scale 0-100; for pest or weed control at 63 g/ha: rate 63 g ai/ha; for pest or weed control at 500 g/ha: rate 500 g ai/ha
In short: as §1

[7] = tested on: large crabgrass (Digitaria sanguinalis, DIGSA); test: as above; conditions: Digitaria sanguinalis, post-emergence, 336 h, 14 days after application, scale 0-100; for pest or weed control at 63 g/ha: rate 63 g ai/ha; for pest or weed control at 500 g/ha: rate 500 g ai/ha
In short: as §1

[8] = tested on: Johnsongrass (Sorghum halepense, SORHA); test: as above; conditions: Sorghum halepense, post-emergence, 336 h, 14 days after application, scale 0-100; for pest or weed control at 63 g/ha: rate 63 g ai/ha; for pest or weed control at 500 g/ha: rate 500 g ai/ha
In short: as §1

[9] = tested on: lambsquarters (Chenopodium album, CHEAL); test: as above; conditions: Chenopodium album, post-emergence, 336 h, 14 days after application, scale 0-100; for pest or weed control at 63 g/ha: rate 63 g ai/ha; for pest or weed control at 500 g/ha: rate 500 g ai/ha
In short: as §1

[10] = tested on: ivyleaf morningglory (Ipomoea hederacea, IPOHE); test: Pre-emerge greenhouse herbicide test, phytotoxicity rating; conditions: Ipomoea, pre-emergence, 336 h, 14 days after application, rating scale 0-100; for pest or weed control at 125 g/ha: Rate 125 g al/ha; for pest or weed control at 500 g/ha: Rate 500 g al/ha
In short: (§2)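 Seeds sown in sandy loam mix one day before track-sprayer application of compounds in acetone at 125–1000 g ai/ha (187 l/ha), then surface-watered to incorporate and bottom-watered. Visual rating 14 days after application on a 0–100 scale (0 = no damage, 100 = all plants dead).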

[11] = tested on: green foxtail (Setaria viridis, SETVI); test: as above; conditions: Setaria viridis, pre-emergence, 336 h, 14 days after application, rating scale 0-100; for pest or weed control at 125 g/ha: Rate 125 g al/ha; for pest or weed control at 500 g/ha: Rate 500 g al/ha
In short: as §2

[12] = tested on: sicklepod (Cassia obtusifolia, CASOB); test: as above; conditions: Senna obtusifolia, pre-emergence, 336 h, 14 days after application, rating scale 0-100; for pest or weed control at 125 g/ha: Rate 125 g al/ha; for pest or weed control at 500 g/ha: Rate 500 g al/ha
In short: as §2

[13] = tested on: velvetleaf (Abutilon theophrasti, ABUTH); test: as above; conditions: Abutilon theophrasti, pre-emergence, 336 h, 14 days after application, rating scale 0-100; for pest or weed control at 125 g/ha: Rate 125 g al/ha; for pest or weed control at 500 g/ha: Rate 500 g al/ha
In short: as §2

[14] = tested on: Johnsongrass (Sorghum halepense, SORHA); test: as above; conditions: Sorghum halepense, pre-emergence, 336 h, 14 days after application, rating scale 0-100; for pest or weed control at 125 g/ha: Rate 125 g al/ha; for pest or weed control at 500 g/ha: Rate 500 g al/ha
In short: as §2

[15] = tested on: lambsquarters (Chenopodium album, CHEAL); test: as above; conditions: Chenopodium album, pre-emergence, 336 h, 14 days after application, rating scale 0-100; for pest or weed control at 125 g/ha: Rate 125 g al/ha; for pest or weed control at 500 g/ha: Rate 500 g al/ha
In short: as §2

Cc1nsc(Oc2cc(-n3c(=O)cc(C(F)(F)F)n(N)c3=O)c(F)cc2Cl)c1[N+](=O)[O-] [Compound 9-14, 1-Amino-3-[4-Chloro-2-fluoro-5-(3-methyl-4-nitroisothiazol-5-yloxy)phenyl]-6-trifluoromethyl-1,2,3,4-tetrahydropyrimidine-2,4-dione]
pest or weed control at 63 g/ha [1]: 95% | pest or weed control at 500 g/ha [1]: 100% | pest or weed control at 63 g/ha [2]: 80% | pest or weed control at 500 g/ha [2]: 100% | pest or weed control at 63 g/ha [3]: 10% | pest or weed control at 500 g/ha [3]: 100% | pest or weed control at 63 g/ha [4]: 60% | pest or weed control at 500 g/ha [4]: 100% | pest or weed control at 63 g/ha [5]: 100% | pest or weed control at 500 g/ha [5]: 100% | pest or weed control at 63 g/ha [6]: 100% | pest or weed control at 500 g/ha [6]: 100% | pest or weed control at 63 g/ha [7]: 30% | pest or weed control at 500 g/ha [7]: 100% | pest or weed control at 63 g/ha [8]: 40% | pest or weed control at 500 g/ha [8]: 100% | pest or weed control at 63 g/ha [9]: 80% | pest or weed control at 500 g/ha [9]: 100% | pest or weed control at 125 g/ha [10]: 100% | pest or weed control at 500 g/ha [10]: 100% | pest or weed control at 125 g/ha [11]: 100% | pest or weed control at 500 g/ha [11]: 100% | pest or weed control at 125 g/ha [12]: 100% | pest or weed control at 500 g/ha [12]: 90% | pest or weed control at 125 g/ha [13]: 100% | pest or weed control at 500 g/ha [13]: 100% | pest or weed control at 125 g/ha [14]: 95% | pest or weed control at 500 g/ha [14]: 100% | pest or weed control at 125 g/ha [15]: 100% | pest or weed control at 500 g/ha [15]: 100%

Nn1c(C(F)(F)F)cc(=O)n(-c2cc(Oc3ccccn3)c(Cl)cc2F)c1=O [Compound 9-15, 1-amino-3-[4-chloro-2-fluoro-5-(2pyridyloxy)phenyl]-6-trifluoromethyl-1,2,3,4-tetrahydropyrimidine-2,4-dione]
pest or weed control at 125 g/ha ([1]; rate 125 g ai/ha): 100% | pest or weed control at 500 g/ha [1]: 100% | pest or weed control at 125 g/ha ([2]; rate 125 g ai/ha): 95% | pest or weed control at 500 g/ha [2]: 100% | pest or weed control at 125 g/ha ([3]; rate 125 g ai/ha): 90% | pest or weed control at 500 g/ha [3]: 99% | pest or weed control at 125 g/ha ([4]; rate 125 g ai/ha): 100% | pest or weed control at 500 g/ha [4]: 100% | pest or weed control at 125 g/ha ([5]; rate 125 g ai/ha): 100% | pest or weed control at 500 g/ha [5]: 100% | pest or weed control at 125 g/ha ([6]; rate 125 g ai/ha): 100% | pest or weed control at 500 g/ha [6]: 100% | pest or weed control at 125 g/ha ([7]; rate 125 g ai/ha): 90% | pest or weed control at 500 g/ha [7]: 100% | pest or weed control at 125 g/ha ([8]; rate 125 g ai/ha): 95% | pest or weed control at 500 g/ha [8]: 100% | pest or weed control at 125 g/ha ([9]; rate 125 g ai/ha): 100% | pest or weed control at 500 g/ha [9]: 100% | pest or weed control at 125 g/ha [10]: 100% | pest or weed control at 500 g/ha [10]: 100% | pest or weed control at 125 g/ha [11]: 100% | pest or weed control at 500 g/ha [11]: 100% | pest or weed control at 125 g/ha [12]: 95% | pest or weed control at 500 g/ha [12]: 100% | pest or weed control at 125 g/ha [13]: 100% | pest or weed control at 500 g/ha [13]: 100% | pest or weed control at 125 g/ha [14]: 100% | pest or weed control at 500 g/ha [14]: 100% | pest or weed control at 125 g/ha [15]: 100% | pest or weed control at 500 g/ha [15]: 100%

Nn1c(C(F)(F)F)cc(=O)n(-c2cc(Oc3ncccc3C(F)(F)F)c(Cl)cc2F)c1=O [Compound 9-7, 1-Amino-3-[4-chloro-2-fluoro-5-(3-trifluoromethyl-2-pyridyloxy)phenyl]-6-trifluoromethyl-1,2,3,4-tetrahydropyrimidine-2,4-dione]
pest or weed control at 63 g/ha [1]: 100% | pest or weed control at 500 g/ha [1]: 100% | pest or weed control at 63 g/ha [2]: 40% | pest or weed control at 500 g/ha [2]: 70% | pest or weed control at 63 g/ha [3]: 60% | pest or weed control at 500 g/ha [3]: 70% | pest or weed control at 63 g/ha [4]: 90% | pest or weed control at 500 g/ha [4]: 90% | pest or weed control at 63 g/ha [5]: 100% | pest or weed control at 500 g/ha [5]: 100% | pest or weed control at 63 g/ha [6]: 100% | pest or weed control at 500 g/ha [6]: 100% | pest or weed control at 63 g/ha [7]: 10% | pest or weed control at 500 g/ha [7]: 30% | pest or weed control at 63 g/ha [8]: 80% | pest or weed control at 500 g/ha [8]: 90% | pest or weed control at 63 g/ha [9]: 100% | pest or weed control at 500 g/ha [9]: 100% | pest or weed control at 125 g/ha [10]: 70% | pest or weed control at 500 g/ha [10]: 100% | pest or weed control at 125 g/ha [11]: 100% | pest or weed control at 500 g/ha [11]: 100% | pest or weed control at 125 g/ha [12]: 40% | pest or weed control at 500 g/ha [12]: 100% | pest or weed control at 125 g/ha [13]: 100% | pest or weed control at 500 g/ha [13]: 100% | pest or weed control at 125 g/ha [14]: 90% | pest or weed control at 500 g/ha [14]: 100% | pest or weed control at 125 g/ha [15]: 100% | pest or weed control at 500 g/ha [15]: 100%

O=c1n(-c2cc(Oc3ncccc3C(F)(F)F)c(Cl)cc2F)c(=S)n2n1CCCC2 [Compound 8-18, 2-[4-chloro-2-fluoro-5-(3-trifluoromethyl-2pyridyloxy)phenyl]hexahydro-3-thioxo-1H-[1,2,4]triazolo[1,2-a]pyridazin-1-one]
pest or weed control at 63 g/ha [1]: 100% | pest or weed control at 500 g/ha [1]: 100% | pest or weed control at 63 g/ha [2]: 40% | pest or weed control at 500 g/ha [2]: 70% | pest or weed control at 63 g/ha [3]: 70% | pest or weed control at 500 g/ha [3]: 70% | pest or weed control at 63 g/ha [4]: 70% | pest or weed control at 500 g/ha [4]: 100% | pest or weed control at 63 g/ha [5]: 100% | pest or weed control at 500 g/ha [5]: 100% | pest or weed control at 63 g/ha [6]: 100% | pest or weed control at 500 g/ha [6]: 100% | pest or weed control at 63 g/ha [7]: 0% | pest or weed control at 500 g/ha [7]: 10% | pest or weed control at 63 g/ha [8]: 50% | pest or weed control at 500 g/ha [8]: 90% | pest or weed control at 63 g/ha [9]: 100% | pest or weed control at 500 g/ha [9]: 100% | pest or weed control at 125 g/ha [10]: 20% | pest or weed control at 500 g/ha [10]: 45% | pest or weed control at 125 g/ha [11]: 95% | pest or weed control at 500 g/ha [11]: 100% | pest or weed control at 125 g/ha [12]: 20% | pest or weed control at 500 g/ha [12]: 40% | pest or weed control at 125 g/ha [13]: 100% | pest or weed control at 500 g/ha [13]: 100% | pest or weed control at 125 g/ha [14]: 40% | pest or weed control at 500 g/ha [14]: 100% | pest or weed control at 125 g/ha [15]: 100% | pest or weed control at 500 g/ha [15]: 100%
